The text below walks through data of patent US10190138B2, “Methods using short chain peracids to replace antibiotics for controlling fermentation process infection” (Ecolab USA Inc., priority 2012, dated 2019).

For data set [1] the following is noted: pH 4. The source says: The issue of low solubility when using long chain peracids has been addressed by increasing the pH to above 7. […] Further, bleaching efficacy decreases proportionally with every pH unit increase over about 7.
The next data set relates to Lactobacilli. The conditions noted are these: 2 hours of contact time in the absence of yeast; cited from earlier work.
The next data set relates to L. fermentum. The experiment in a line: MRS broth fermentation, CO2 respirometry. Type of data set: cell-based, Lactobacillus fermentum. The conditions noted are these: 1 ppm, 1×10^5 cell/mL start. The procedure:
Solutions of Vortexx and Octave were provided by the Ecolab, Inc. The antibiotic Virginiamycin was purchased from SantaCruz Biotechnology. Ethanol Red yeast (Fermentis), and Lactobacillus fermentum were revived from 10% glycerol stocks maintained at […]. Yeast was grown at 30° C. under aerobic conditions in either liquid YPD medium or on YPD agar prior to use in propagations and fermentations. Bacteria were grown at 30° C. under anaerobic conditions in either liquid MRS broth, and or on MRS agar plates. Liquefied corn mash and gluco-amylase enzyme was provided by Illinois River Energy (Rochelle, Ill.).
Fermentations were conducted in Wheaton glass bottles placed in a 30° C. recirculating water bath atop an 8-position magnetic stir-plate. Each bottle was sealed with a rubber septum cap and connected through ⅛″ tubing to a respirometer instrument (Challenger Instruments), which quantified the off-gassing of CO2 during fermentation.
MRS broth fermentations were conducted in 0.125 L Wheaton bottles, each containing the 100 mL of MRS broth and 4 mL propagated bacteria. […]
MRS broth, which contains only 0.6% solids compared to typical liquefied corn mash at 30% solids, represents a relatively simple test of the effectiveness of the peracid chemistries for controlling Lactobacillus growth. […] All bottles were placed monitored via respirometry under identical conditions. […]

Consider `O=C(CCCCCCCCCCS(=O)(=O)O)OO` [11-sulfoundecane peroxoic acid], for which the solubility entry in data set [1] is “about 1.3%”.
Turning to `OO` [hydrogen peroxide], the “hydrogen peroxide required for effective bacterial control” value in the data set with Lactobacilli is on record as 600 ppm.
Turning to Virginiamycin, in the data set with L. fermentum, the CO2 production result is “failed to produce any CO2” and the bacterial growth entry is given as “no bacterial growth”.
